Test results as given in publication PMC10176470, “Engaging a Non-catalytic Cysteine Residue Drives Potent and Selective Inhibition of Caspase-6” (Journal of the American Chemical Society, 2023).
Where two headings read alike, the source gives them in different places.

Columns and labels:
Assay type in all cases: cell-based
[1] = molecular target: proteins of HEK293T cells transiently overexpressing caspase-6 (Homo sapiens, UniProt P25788); conditions: Probe; protein PSMA3 P25788
[2] = molecular target: proteins of HEK293T cells transiently overexpressing caspase-6 (Homo sapiens, UniProt P35908); conditions: Probe; protein KRT2 P35908
Sequence of proteins of HEK293T cells transiently overexpressing caspase-6 (Homo sapiens, UniProt P35908) (P35908 whole entry): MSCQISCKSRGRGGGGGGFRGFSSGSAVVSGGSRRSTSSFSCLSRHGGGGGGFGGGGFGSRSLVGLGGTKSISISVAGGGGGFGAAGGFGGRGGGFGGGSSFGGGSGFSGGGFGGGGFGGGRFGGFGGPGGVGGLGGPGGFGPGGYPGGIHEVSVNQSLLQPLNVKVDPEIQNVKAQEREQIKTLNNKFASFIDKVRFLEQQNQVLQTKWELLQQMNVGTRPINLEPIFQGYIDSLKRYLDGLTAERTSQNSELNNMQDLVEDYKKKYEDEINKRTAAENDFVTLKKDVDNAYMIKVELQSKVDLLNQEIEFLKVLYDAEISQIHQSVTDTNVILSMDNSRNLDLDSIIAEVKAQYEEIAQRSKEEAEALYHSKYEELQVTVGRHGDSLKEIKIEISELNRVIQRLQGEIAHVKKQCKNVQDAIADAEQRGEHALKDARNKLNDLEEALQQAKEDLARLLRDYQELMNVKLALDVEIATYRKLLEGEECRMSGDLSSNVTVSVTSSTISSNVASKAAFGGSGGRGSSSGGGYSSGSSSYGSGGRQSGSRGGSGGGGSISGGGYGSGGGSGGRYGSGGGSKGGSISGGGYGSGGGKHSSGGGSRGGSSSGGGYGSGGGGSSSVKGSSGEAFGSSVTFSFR

[3] = molecular target: T1, proteins of HEK293T cells transiently overexpressing caspase-6 (Homo sapiens, UniProt P45880); conditions: protein VDAC2 (P45880)
T1 sequence (P45880 1-294): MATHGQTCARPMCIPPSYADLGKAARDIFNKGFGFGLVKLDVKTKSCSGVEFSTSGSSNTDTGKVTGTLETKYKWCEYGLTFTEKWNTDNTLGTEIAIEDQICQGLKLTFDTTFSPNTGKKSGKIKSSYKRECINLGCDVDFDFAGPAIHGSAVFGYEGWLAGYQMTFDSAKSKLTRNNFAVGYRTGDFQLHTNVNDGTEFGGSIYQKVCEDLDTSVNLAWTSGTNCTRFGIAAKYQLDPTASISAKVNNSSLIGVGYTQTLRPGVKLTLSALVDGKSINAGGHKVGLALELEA

[4] = molecular target: T2, proteins of HEK293T cells transiently overexpressing caspase-6 (Homo sapiens, UniProt P46977); conditions: protein STT3A (P46977)
T2 sequence (P46977 1-705): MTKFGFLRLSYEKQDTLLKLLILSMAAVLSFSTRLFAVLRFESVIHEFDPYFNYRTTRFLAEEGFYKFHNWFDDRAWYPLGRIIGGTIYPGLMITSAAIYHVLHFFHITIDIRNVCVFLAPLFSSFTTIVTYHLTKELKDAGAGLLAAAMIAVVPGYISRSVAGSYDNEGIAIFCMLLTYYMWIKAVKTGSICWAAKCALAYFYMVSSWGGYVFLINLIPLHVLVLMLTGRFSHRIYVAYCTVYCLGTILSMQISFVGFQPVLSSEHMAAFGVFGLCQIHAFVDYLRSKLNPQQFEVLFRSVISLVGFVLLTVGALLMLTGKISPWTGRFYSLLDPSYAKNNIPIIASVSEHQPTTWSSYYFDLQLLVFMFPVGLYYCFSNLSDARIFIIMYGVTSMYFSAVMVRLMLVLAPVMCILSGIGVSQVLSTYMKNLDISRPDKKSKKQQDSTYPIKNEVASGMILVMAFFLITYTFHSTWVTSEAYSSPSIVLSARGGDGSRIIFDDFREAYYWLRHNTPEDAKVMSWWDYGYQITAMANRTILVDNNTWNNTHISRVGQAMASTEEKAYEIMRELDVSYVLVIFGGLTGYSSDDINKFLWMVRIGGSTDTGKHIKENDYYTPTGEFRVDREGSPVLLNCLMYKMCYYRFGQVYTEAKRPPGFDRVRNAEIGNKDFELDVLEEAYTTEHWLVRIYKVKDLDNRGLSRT

[5] = molecular target: T3, proteins of HEK293T cells transiently overexpressing caspase-6 (Homo sapiens, UniProt P78417); conditions: protein GSTO1 (P78417)
T3 sequence (P78417 1-241): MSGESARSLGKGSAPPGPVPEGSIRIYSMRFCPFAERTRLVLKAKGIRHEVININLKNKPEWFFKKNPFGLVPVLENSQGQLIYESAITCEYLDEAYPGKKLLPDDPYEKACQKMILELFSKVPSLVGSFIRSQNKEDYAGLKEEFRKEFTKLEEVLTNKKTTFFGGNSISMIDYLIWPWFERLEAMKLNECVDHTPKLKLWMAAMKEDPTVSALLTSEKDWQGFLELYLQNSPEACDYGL

[6] = molecular target: T4, proteins of HEK293T cells transiently overexpressing caspase-6 (Homo sapiens, UniProt Q96F45); conditions: protein ZNF503 (Q96F45), analysis C6
T4 sequence (Q96F45 1-646): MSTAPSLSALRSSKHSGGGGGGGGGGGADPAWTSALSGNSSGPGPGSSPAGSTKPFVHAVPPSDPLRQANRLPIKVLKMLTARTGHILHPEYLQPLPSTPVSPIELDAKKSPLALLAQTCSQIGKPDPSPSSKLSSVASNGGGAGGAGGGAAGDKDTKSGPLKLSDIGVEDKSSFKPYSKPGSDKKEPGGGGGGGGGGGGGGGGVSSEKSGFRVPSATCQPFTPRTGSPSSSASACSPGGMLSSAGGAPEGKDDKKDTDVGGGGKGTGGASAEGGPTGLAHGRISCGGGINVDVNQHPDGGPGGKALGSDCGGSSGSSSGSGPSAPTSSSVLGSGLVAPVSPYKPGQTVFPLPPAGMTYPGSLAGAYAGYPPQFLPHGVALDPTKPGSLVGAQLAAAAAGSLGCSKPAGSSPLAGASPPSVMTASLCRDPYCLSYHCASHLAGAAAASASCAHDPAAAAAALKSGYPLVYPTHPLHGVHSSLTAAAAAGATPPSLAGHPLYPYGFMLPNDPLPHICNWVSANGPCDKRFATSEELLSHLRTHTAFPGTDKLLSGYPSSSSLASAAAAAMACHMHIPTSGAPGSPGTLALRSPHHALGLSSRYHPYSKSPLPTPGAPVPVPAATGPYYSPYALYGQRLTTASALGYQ

[7] = molecular target: T5, proteins of HEK293T cells transiently overexpressing caspase-6 (Homo sapiens, UniProt Q9UQ80); conditions: protein PA2G4 (Q9UQ80)
T5 sequence (Q9UQ80 1-394): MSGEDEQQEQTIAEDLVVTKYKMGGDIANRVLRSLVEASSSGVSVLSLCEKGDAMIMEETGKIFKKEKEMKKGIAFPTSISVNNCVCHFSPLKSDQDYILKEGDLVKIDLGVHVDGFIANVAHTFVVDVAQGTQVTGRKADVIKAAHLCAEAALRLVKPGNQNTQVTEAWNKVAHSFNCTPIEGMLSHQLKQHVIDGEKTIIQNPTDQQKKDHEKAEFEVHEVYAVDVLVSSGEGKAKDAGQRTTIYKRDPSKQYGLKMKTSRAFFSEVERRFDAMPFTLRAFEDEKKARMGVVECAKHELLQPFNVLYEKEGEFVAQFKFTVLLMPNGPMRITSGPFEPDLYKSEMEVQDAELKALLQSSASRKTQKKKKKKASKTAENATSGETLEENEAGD

Sequence of proteins of HEK293T cells transiently overexpressing caspase-6 (Homo sapiens, UniProt P25788) (P25788 whole entry): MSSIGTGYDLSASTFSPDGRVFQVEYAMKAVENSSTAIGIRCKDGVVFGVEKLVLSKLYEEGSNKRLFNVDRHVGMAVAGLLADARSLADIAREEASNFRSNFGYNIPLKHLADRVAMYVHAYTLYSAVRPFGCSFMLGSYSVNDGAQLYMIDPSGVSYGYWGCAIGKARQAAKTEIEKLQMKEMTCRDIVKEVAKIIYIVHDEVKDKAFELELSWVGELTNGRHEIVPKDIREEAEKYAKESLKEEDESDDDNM

C#CCOc1ccc([C@@H]2C[C@@H](C(=O)Nc3ccc(OC(F)(F)F)cc3)CN(S(=O)(=O)C=C)C2)cc1 (relative stereo) [13-t]
enrich.exp.med [1]: -2.444
enrich.exp.med [2]: -8.257
enrich.exp.med.lin [3]: 4.704
enrich.exp.med.log2 [3]: 2.234
enrich.exp.med.lin ([3]; Expt Probe, analysis C6): 4.704
enrich.exp.med.log2 ([3]; Expt Probe, analysis C6): 2.234
enrich.exp.med ([3]; exp_ref Probe, analysis C6): 2.234
enrich.exp.med.lin [4]: 3.857
enrich.exp.med.log2 [4]: 1.948
enrich.exp.med ([4]; exp_ref Probe, analysis C6): 1.948
enrich.exp.med ([5]; exp_ref Probe, analysis C6): 0.9115
enrich.exp.med.lin [5]: 1.881
enrich.exp.med.log2 [5]: 0.9115
enrich.exp.med.lin ([6]; Expt Probe): 59.486
enrich.exp.med.log2 ([6]; Expt Probe): 5.894
enrich.exp.med ([6]; exp_ref Probe): 5.894
enrich.exp.med.lin [7]: 2.618
enrich.exp.med.log2 [7]: 1.389
enrich.exp.med ([7]; exp_ref Probe, analysis C6): 1.389
